Test results from US9957271B2, “Substituted bicyclic aza-heterocycles and analogues as sirtuin modulators” (GlaxoSmithKline, LLC, priority 2012, dated 2018).

Legend:
SIRT1 [1] = molecular target: T1, SIRT1 (Homo sapiens, UniProt Q96EB6); test: TAMRA based mass spectrometry assay of SIRT1 activity; format: biochemical; conditions: for Emax: read-out: TAMRA % Fold Act
T1 sequence (Q96EB6 1-747): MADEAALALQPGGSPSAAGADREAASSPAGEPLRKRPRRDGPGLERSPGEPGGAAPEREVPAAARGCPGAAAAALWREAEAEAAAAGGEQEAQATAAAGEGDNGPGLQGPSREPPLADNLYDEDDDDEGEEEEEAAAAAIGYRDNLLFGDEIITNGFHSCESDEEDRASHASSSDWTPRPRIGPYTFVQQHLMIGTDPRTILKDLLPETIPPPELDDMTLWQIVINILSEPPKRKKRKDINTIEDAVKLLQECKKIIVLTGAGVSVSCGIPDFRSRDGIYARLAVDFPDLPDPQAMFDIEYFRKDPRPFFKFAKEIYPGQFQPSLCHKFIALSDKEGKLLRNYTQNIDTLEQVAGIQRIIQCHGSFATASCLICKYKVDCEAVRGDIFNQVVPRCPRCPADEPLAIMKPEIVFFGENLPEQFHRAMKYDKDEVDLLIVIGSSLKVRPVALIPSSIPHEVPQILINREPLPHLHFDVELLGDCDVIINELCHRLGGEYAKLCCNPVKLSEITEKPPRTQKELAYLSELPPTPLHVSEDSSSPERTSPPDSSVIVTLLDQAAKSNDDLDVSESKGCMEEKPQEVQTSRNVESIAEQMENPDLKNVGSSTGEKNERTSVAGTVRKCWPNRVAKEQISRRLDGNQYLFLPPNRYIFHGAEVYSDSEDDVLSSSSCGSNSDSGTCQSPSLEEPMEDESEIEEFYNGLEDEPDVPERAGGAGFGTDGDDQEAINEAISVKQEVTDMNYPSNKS
Summary of the method: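 Deacetylation of a biotinylated, TAMRA-tagged p53-based peptide (0.5 μM) by 10 nM His-tagged SIRT1 with 120 μM βNAD+, 25 °C for 25 min, pH 8 Tris-acetate buffer, across a compound concentration range. Quenched by formic acid and read by mass spec as product peptide or OAADPR; activity relative to DMSO reactions, nicotinamide defining maximal inhibition.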

SIRT1 [2] = molecular target: T1, SIRT1; test: Trp mass spectrometry assay of SIRT1 activity; format: biochemical; conditions: for Emax: read-out: Trp % Fold Act
Summary of the method: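 Activation readout: EC1.5 (concentration raising activity 50% over control) and percent maximum activation, from mass-spec quantitation of OAADPR or deacetylated Trp peptide. Reaction: 0.5 μM acetylated Trp peptide, 120 μM βNAD+, 10 nM bacterially expressed N-His SIRT1, pH 7.5 HEPES buffer with […], 25 min at 25° C.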

[3] = TAMRA peptide substrate, concentration giving 150% activation of SIRT1
[4] = TAMRA peptide substrate, percent maximum fold activation
[5] = Trp peptide substrate, concentration giving 150% activation of SIRT1
[6] = Trp peptide substrate, percent maximum fold activation
[7] = concentration of test compound giving 150% activation of SIRT1, TAMRA peptide substrate
[8] = percent maximum fold activation of SIRT1, TAMRA peptide substrate
[9] = concentration of test compound giving 150% activation of SIRT1, Trp peptide substrate
[10] = percent maximum fold activation of SIRT1, Trp peptide substrate
[11] = TAMRA assay, concentration giving 150% activation of SIRT1
[12] = TAMRA assay, percent maximum fold activation
[13] = Trp assay, concentration giving 150% activation of SIRT1
[14] = Trp assay, percent maximum fold activation

Row | Structure (SMILES) | TAMRA EC1.5 (SIRT1 [1]; [3]) | Emax (SIRT1 [1]; [4]) [%] | Trp EC1.5 (SIRT1 [2]; [5]) | Emax (SIRT1 [2]; [6]) [%] | TAMRA EC1.5 (μM) (SIRT1 [1]; [11]) | Emax (SIRT1 [1]; [12]) [%] | Trp EC1.5 (μM) (SIRT1 [2]; [13]) | Emax (SIRT1 [2]; [14]) [%] | other results
1 | Cc1cc(NC(=O)c2cnc3ccc(-c4cccc(OCC(O)CO)c4)nn23)cc(C)n1 (centres unmarked) [Compound 418] | B (EC1.5 1-25 μM) | < 350 | C (EC1.5>25 μM) | < 350 |  |  |  |  | 
2 | CN(C)CCn1cc(NC(=O)c2cnc3ccc(-c4ccccc4C(F)(F)F)nn23)cn1 [Compound 155] |  |  |  |  |  |  |  |  | TAMRA EC1.5 (μM) (SIRT1 [1]; [7]): B (EC1.5 1-25 μM); Emax (SIRT1 [1]; [8]): < 350%; Trp EC1.5 (μM) (SIRT1 [2]; [9]): C (EC1.5>25 μM); Emax (SIRT1 [2]; [10]): < 350%
3 | O=C(Nc1ccccn1)c1cnc2ccc(-c3ccccc3OC[C@H](O)CO)nn12 [Compound 812] |  |  |  |  | A (EC1.5<1 μM) | ≥ 350 | A (EC1.5<1 μM) | ≥ 350 | 
4 | O=C(Nc1cccnc1)c1ncn2ccc(-c3ccccc3C(F)(F)F)nc12 [Compound 451, N-(pyridin-3-yl)-2-(2-(trifluoromethyl)phenyl)imidazo[1,5-a]pyrimidine-8-carboxamide] | B (EC1.5 1-25 μM) | ≥ 350 | B (EC1.5 1-25 μM) | ≥ 350 |  |  |  |  | 
5 | O=C(Nc1ccnc(N2CCC2)c1)c1cnc2ccc(-c3cncc(C(F)F)c3)nn12 [Compound 62] |  |  |  |  |  |  |  |  | TAMRA EC1.5 (μM) (SIRT1 [1]; [7]): B (EC1.5 1-25 μM); Emax (SIRT1 [1]; [8]): < 350%; Trp EC1.5 (μM) (SIRT1 [2]; [9]): C (EC1.5>25 μM); Emax (SIRT1 [2]; [10]): < 350%
6 | O=C(Nc1ccncn1)c1cnc2ccc(-c3ccccc3C(F)(F)F)nn12 [Compound 80] |  |  |  |  |  |  |  |  | TAMRA EC1.5 (μM) (SIRT1 [1]; [7]): B (EC1.5 1-25 μM); Emax (SIRT1 [1]; [8]): ≥ 350%; Trp EC1.5 (μM) (SIRT1 [2]; [9]): C (EC1.5>25 μM); Emax (SIRT1 [2]; [10]): < 350%
7 | O=C(Nc1ccncc1)c1cnc2ccc(-c3c(F)cccc3Cl)nn12 [Compound 161] |  |  |  |  |  |  |  |  | TAMRA EC1.5 (μM) (SIRT1 [1]; [7]): B (EC1.5 1-25 μM); Emax (SIRT1 [1]; [8]): < 350%; Trp EC1.5 (μM) (SIRT1 [2]; [9]): C (EC1.5>25 μM); Emax (SIRT1 [2]; [10]): < 350%
8 | O=C(Nc1ccncc1)c1cnc2ccc(-c3cccc(Cl)c3F)nn12 [Compound 141] |  |  |  |  |  |  |  |  | TAMRA EC1.5 (μM) (SIRT1 [1]; [7]): C (EC1.5>25 μM); Emax (SIRT1 [1]; [8]): < 350%; Trp EC1.5 (μM) (SIRT1 [2]; [9]): C (EC1.5>25 μM); Emax (SIRT1 [2]; [10]): < 350%
9 | Cc1cncc(NC(=O)c2c(C)nn3ccc(-c4ccccc4Br)nc23)c1 [Compound 827] |  |  |  |  | A (EC1.5<1 μM) | ≥ 350 | A (EC1.5<1 μM) | < 350 | 
10 | O=C(Nc1cccnc1)c1cnc2ccc(-c3cccc(C(F)(F)F)c3)nn12 [Compound 2] |  |  |  |  |  |  |  |  | TAMRA EC1.5 (μM) (SIRT1 [1]; [7]): B (EC1.5 1-25 μM); Emax (SIRT1 [1]; [8]): < 350%; Trp EC1.5 (μM) (SIRT1 [2]; [9]): A (EC1.5<1 μM); Emax (SIRT1 [2]; [10]): ≥ 350%
11 | Cc1nc2ccc(-c3ccccc3C(F)(F)F)nn2c1C(=O)Nc1ccnn1C(C)(C)C [Compound 672] |  |  |  |  | B (EC1.5 1-25 μM) | < 350 | B (EC1.5 1-25 μM) | < 350 | 
12 | Cc1cc2ncc(NC(=O)c3ccncn3)n2nc1-c1ccccc1C(F)(F)F [Compound 443] | A (EC1.5<1 μM) | ≥ 350 | C (EC1.5>25 μM) | < 350 |  |  |  |  | 
13 | Cc1cnc(C(=O)Nc2cnc3c(C)cc(-c4ccccc4C(F)(F)F)nn23)s1 [Compound 424] | A (EC1.5<1 μM) | ≥ 350 | B (EC1.5 1-25 μM) | < 350 |  |  |  |  | 
14 | COc1nccc(NC(=O)c2cnc3ccc(-c4ccccc4C(F)(F)F)nn23)n1 [Compound 173] |  |  |  |  |  |  |  |  | TAMRA EC1.5 (μM) (SIRT1 [1]; [7]): A (EC1.5<1 μM); Emax (SIRT1 [1]; [8]): ≥ 350%; Trp EC1.5 (μM) (SIRT1 [2]; [9]): B (EC1.5 1-25 μM); Emax (SIRT1 [2]; [10]): ≥ 350%
15 | O=C(Nc1cncc(OCC(O)CO)n1)c1cnc2ccc(-c3ccccc3C(F)(F)F)nn12 (centres unmarked) [Compound 213] |  |  |  |  | A (EC1.5<1 μM) | ≥ 350 | A (EC1.5<1 μM) | ≥ 350 | 
16 | O=C(Nc1cccc(N2CCOCC2)n1)c1cnc2ccc(N3CCC(F)(F)C3)nn12 [Compound 489] | B (EC1.5 1-25 μM) | < 350 | A (EC1.5<1 μM) | ≥ 350 |  |  |  |  | 

Row | Structure (SMILES) | TAMRA EC1.5 (SIRT1 [1]; [3]) | Emax (SIRT1 [1]; [4]) [%] | Trp EC1.5 (SIRT1 [2]; [5]) | Emax (SIRT1 [2]; [6]) [%] | TAMRA EC1.5 (μM) (SIRT1 [1]; [11]) | Emax (SIRT1 [1]; [12]) [%] | Trp EC1.5 (μM) (SIRT1 [2]; [13]) | Emax (SIRT1 [2]; [14]) [%] | other results
17 | O=C(Nc1cccc(N2CCOCC2)n1)c1cnc2ccc(-c3cccc(OCC(O)CO)c3)nn12 (centres unmarked) [Compound 372] |  |  |  |  | A (EC1.5<1 μM) | ≥ 350 | A (EC1.5<1 μM) | < 350 | 
18 | O=C(Nc1ccc(F)cn1)c1cnn2ccc(-c3ccccc3C(F)(F)F)nc12 [Compound 518] | A (EC1.5<1 μM) | ≥ 350 | B (EC1.5 1-25 μM) | < 350 |  |  |  |  | 
19 | O=C(Nc1cccnc1)c1cnn2ccc(-c3ccccc3C(F)(F)F)nc12 [Compound 239] |  |  |  |  | B (EC1.5 1-25 μM) | ≥ 350 | B (EC1.5 1-25 μM) | ≥ 350 | 
20 | Cc1cc(NC(=O)c2cnc3ccc(-c4ccccc4OCC(O)CO)nn23)cc(C)n1 (centres unmarked) [Compound 415] | A (EC1.5<1 μM) | ≥ 350 | B (EC1.5 1-25 μM) | ≥ 350 |  |  |  |  | 
21 | Cc1cc(C)nc(NC(=O)c2cnc3ccc(N4CC[C@@H](N(C)C)C4)nn23)c1 [Compound 513] | B (EC1.5 1-25 μM) | < 350 | C (EC1.5>25 μM) | < 350 |  |  |  |  | 
22 | O=C(Nc1cccc(O)n1)c1cnn2ccc(-c3ccccc3OC(F)(F)F)nc12 [Compound 580] | B (EC1.5 1-25 μM) | ≥ 350 | A (EC1.5<1 μM) | ≥ 350 |  |  |  |  | 
23 | O=C(Nc1cnc2ccc(-c3ccccc3C(F)(F)F)nn12)c1cnc(O)cn1 [Compound 704] |  |  |  |  | A (EC1.5<1 μM) | ≥ 350 | B (EC1.5 1-25 μM) | < 350 | 
24 | Cc1nc(C(=O)Nc2cnn3ccc(-c4ccccc4OC(F)(F)F)nc23)c(C)s1 [Compound 713] |  |  |  |  | B (EC1.5 1-25 μM) | ≥ 350 | B (EC1.5 1-25 μM) | < 350 | 
25 | Cc1cnc(C(=O)Nc2cnc3ccc(-c4ccccc4OC(F)(F)F)nn23)s1 [Compound 320] |  |  |  |  | A (EC1.5<1 μM) | ≥ 350 | B (EC1.5 1-25 μM) | < 350 | 
26 | Cc1nc2ccc(-c3ccccc3C(F)(F)F)nn2c1C(=O)Nc1ccncn1 [Compound 461] | A (EC1.5<1 μM) | ≥ 350 | B (EC1.5 1-25 μM) | ≥ 350 |  |  |  |  | 
27 | CC(C)c1nccc(C(=O)Nc2cnn3ccc(-c4ccccc4OC(F)(F)F)nc23)n1 [Compound 728] |  |  |  |  | A (EC1.5<1 μM) | ≥ 350 | C (EC1.5>25 μM) | < 350 | 
28 | O=C(Nc1cnc2ccc(-c3ccccc3F)nn12)c1ccccn1 [Compound 279] |  |  |  |  | B (EC1.5 1-25 μM) | < 350 | C (EC1.5>25 μM) | < 350 | 
29 | Cc1cccc(-c2ccc3nc(C)c(C(=O)Nc4cccnn4)n3n2)c1 [Compound 766] |  |  |  |  | A (EC1.5<1 μM) | < 350 | A (EC1.5<1 μM) | < 350 | 
30 | Cc1cccnc1NC(=O)c1c(C)nn2ccc(-c3ccccc3C(F)(F)F)nc12 [Compound 722, 2-methyl-N-(3-methylpyridin-2-yl)-5-(2-(trifluoromethyl)phenyl)pyrazolo[1,5-a]pyrimidine-3-carboxamide] |  |  |  |  | B (EC1.5 1-25 μM) | < 350 | A (EC1.5<1 μM) | ≥ 350 | 
31 | O=C(Nc1cccc(N2CCOCC2)n1)c1cnc2ccc(N3CC[C@H](F)C3)nn12 [Compound 487, (S)-6-(3-fluoropyrrolidin-1-yl)-N-(6-morpholinopyridin-2-yl)imidazo[1,2-b]pyridazine-3-carboxamide] | B (EC1.5 1-25 μM) | < 350 | A (EC1.5<1 μM) | ≥ 350 |  |  |  |  | 
32 | CCOc1ccc(NC(=O)c2cnn3ccc(-c4ccccc4OC(F)(F)F)nc23)nn1 [Compound 636] |  |  |  |  | A (EC1.5<1 μM) | ≥ 350 | B (EC1.5 1-25 μM) | < 350 | 
